“And” between values parts separate entries of the source, which are not always exact repeats. Equal entries are not always repeated. Toxic doses and inconclusive results are not listed.
Tested on: CD2F1 mice, L1210 leukemia ip, survival T/C
Assay: NCI In Vivo Anticancer Drug Screen. Data for tumor model L1210 Leukemia (intraperitoneal) in CD2F1 (CDF1) mice
Conditions: higher = longer survival
Summary of the method: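 Compound-dosed mice with transplantable tumor versus matched vehicle controls; endpoint ratio T/C reported.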

## NC(C/[N+]([O-])=N/O)C(=O)O (configuration not stated)
endpoint: mean survival time, dose: 5.0 mg/kg/injection, schedule: Q01DX009 (ip), vehicle: alkali diluted with saline
  T/C: 100 % of control
endpoint: mean survival time, dose: 7.5 mg/kg/injection, schedule: Q01DX005 (ip), vehicle: alkali diluted with saline
  T/C: 98 % of control
endpoint: mean survival time, dose: 8.0 mg/kg/injection, schedule: Q03HX008 (ip), vehicle: saline
  T/C: 111 % of control
endpoint: mean survival time, dose: 8.0 mg/kg/injection, schedule: Q03HX016 (ip), vehicle: saline
  T/C: 105 % of control
endpoint: mean survival time, dose: 8.0 mg/kg/injection, schedule: Q03HX024 (ip), vehicle: saline
  T/C: 109 % of control
endpoint: mean survival time, dose: 8.78 mg/kg/injection, schedule: Q01DX010 (ip), vehicle: alkali diluted with saline
  T/C: 121 % of control
endpoint: mean survival time, dose: 9.38 mg/kg/injection, schedule: Q01DX009 (ip), vehicle: alkali diluted with saline
  T/C: 118 % of control
endpoint: mean survival time, dose: 10.0 mg/kg/injection, schedule: Q01DX009 (ip), vehicle: alkali diluted with saline
  T/C: 101 % of control
endpoint: mean survival time, dose: 13.2 mg/kg/injection, schedule: Q01DX010 (ip), vehicle: alkali diluted with saline
  T/C: 120 % of control
endpoint: mean survival time, dose: 15.0 mg/kg/injection, schedule: Q01DX005 (ip), vehicle: alkali diluted with saline
  T/C: 113 % of control
endpoint: mean survival time, dose: 16.0 mg/kg/injection, schedule: Q01DX009 (sc), vehicle: saline
  T/C: 97 % of control
endpoint: mean survival time, dose: 16.0 mg/kg/injection, schedule: Q03HX008 (ip), vehicle: saline
  T/C: 112 % of control
endpoint: mean survival time, dose: 16.0 mg/kg/injection, schedule: Q03HX016 (ip), vehicle: saline
  T/C: 104 % of control
endpoint: mean survival time, dose: 16.0 mg/kg/injection, schedule: Q03HX024 (ip), vehicle: saline
  T/C: 112 % of control
endpoint: mean survival time, dose: 18.75 mg/kg/injection, schedule: Q01DX009 (ip), vehicle: alkali diluted with saline
  T/C: 119 % of control
endpoint: mean survival time, dose: 18.8 mg/kg/injection, schedule: Q01DX009 (ip), vehicle: alkali diluted with saline
  T/C: 102 % of control
endpoint: mean survival time, dose: 19.8 mg/kg/injection, schedule: Q01DX010 (ip), vehicle: alkali diluted with saline
  T/C: 121 % of control
endpoint: mean survival time, dose: 20.0 mg/kg/injection, schedule: Q01DX009 (ip), vehicle: alkali diluted with saline
  T/C: 105 % of control
endpoint: mean survival time, dose: 28.12 mg/kg/injection, schedule: Q04DX003 (ip), vehicle: alkali diluted with saline
  T/C: 103 % of control
endpoint: mean survival time, dose: 30.0 mg/kg/injection, schedule: Q01DX005 (ip), vehicle: alkali diluted with saline
  T/C: 122 % of control
endpoint: mean survival time, dose: 32.0 mg/kg/injection, schedule: Q01DX009 (ip), vehicle: saline
  T/C: 123 % of control
endpoint: mean survival time, dose: 32.0 mg/kg/injection, schedule: Q01DX009 (sc), vehicle: saline
  T/C: 103 % of control
endpoint: mean survival time, dose: 32.0 mg/kg/injection, schedule: Q03HX008 (ip), vehicle: saline
  T/C: 108 % of control
endpoint: mean survival time, dose: 32.0 mg/kg/injection, schedule: Q03HX016 (ip), vehicle: saline
  T/C: 113 % of control
endpoint: mean survival time, dose: 37.5 mg/kg/injection, schedule: Q01DX009 (ip), vehicle: alkali diluted with saline
  T/C: 120 % of control and 124 % of control
endpoint: mean survival time, dose: 40.0 mg/kg/injection, schedule: Q01DX009 (ip), vehicle: alkali diluted with saline
  T/C: 120 % of control
endpoint: mean survival time, dose: 56.25 mg/kg/injection, schedule: Q04DX003 (ip), vehicle: alkali diluted with saline
  T/C: 116 % of control and 103 % of control
endpoint: mean survival time, dose: 64.0 mg/kg/injection, schedule: Q01DX001 (ip), vehicle: saline
  T/C: 111 % of control
endpoint: mean survival time, dose: 64.0 mg/kg/injection, schedule: Q01DX009 (oral), vehicle: saline
  T/C: 96 % of control
endpoint: mean survival time, dose: 64.0 mg/kg/injection, schedule: Q01DX009 (sc), vehicle: saline
  T/C: 111 % of control
endpoint: mean survival time, dose: 64.0 mg/kg/injection, schedule: Q03HX008 (ip), vehicle: saline
  T/C: 116 % of control
endpoint: mean survival time, dose: 64.0 mg/kg/injection, schedule: Q03HX016 (ip), vehicle: saline
  T/C: 116 % of control
endpoint: mean survival time, dose: 64.0 mg/kg/injection, schedule: Q04DX003 (ip), vehicle: saline
  T/C: 116 % of control
endpoint: mean survival time, dose: 64.0 mg/kg/injection, schedule: Q04DX003 (oral), vehicle: saline
  T/C: 98 % of control
endpoint: mean survival time, dose: 64.0 mg/kg/injection, schedule: Q04DX003 (sc), vehicle: saline
  T/C: 96 % of control
endpoint: mean survival time, dose: 64.0 mg/kg/injection, schedule: Q08DX002 (ip), vehicle: saline
  T/C: 109 % of control
endpoint: mean survival time, dose: 112.5 mg/kg/injection, schedule: Q04DX003 (ip), vehicle: alkali diluted with saline
  T/C: 123 % of control
endpoint: mean survival time, dose: 128.0 mg/kg/injection, schedule: Q01DX001 (ip), vehicle: saline
  T/C: 113 % of control
endpoint: mean survival time, dose: 128.0 mg/kg/injection, schedule: Q01DX009 (ip), vehicle: saline
  T/C: 95 % of control
endpoint: mean survival time, dose: 128.0 mg/kg/injection, schedule: Q01DX009 (oral), vehicle: saline
  T/C: 91 % of control
endpoint: mean survival time, dose: 128.0 mg/kg/injection, schedule: Q01DX009 (sc), vehicle: saline
  T/C: 104 % of control
endpoint: mean survival time, dose: 128.0 mg/kg/injection, schedule: Q04DX003 (oral), vehicle: saline
  T/C: 102 % of control
endpoint: mean survival time, dose: 128.0 mg/kg/injection, schedule: Q04DX003 (sc), vehicle: saline
  T/C: 105 % of control
endpoint: mean survival time, dose: 128.0 mg/kg/injection, schedule: Q08DX002 (ip), vehicle: saline
  T/C: 112 % of control
endpoint: mean survival time, dose: 150.0 mg/kg/injection, schedule: Q01DX009 (ip), vehicle: alkali diluted with saline
  T/C: 102 % of control
endpoint: mean survival time, dose: 256.0 mg/kg/injection, schedule: Q01DX001 (ip), vehicle: saline
  T/C: 123 % of control
endpoint: mean survival time, dose: 256.0 mg/kg/injection, schedule: Q04DX003 (ip), vehicle: saline
  T/C: 119 % of control
endpoint: mean survival time, dose: 256.0 mg/kg/injection, schedule: Q04DX003 (oral), vehicle: saline
  T/C: 116 % of control
endpoint: mean survival time, dose: 256.0 mg/kg/injection, schedule: Q04DX003 (sc), vehicle: saline
  T/C: 122 % of control
endpoint: mean survival time, dose: 512.0 mg/kg/injection, schedule: Q04DX003 (ip), vehicle: saline
  T/C: 170 % of control
endpoint: mean survival time, dose: 512.0 mg/kg/injection, schedule: Q04DX003 (sc), vehicle: saline
  T/C: 155 % of control
endpoint: mean survival time, dose: 1024.0 mg/kg/injection, schedule: Q04DX003 (ip), vehicle: saline
  T/C: 90 % of control
endpoint: mean survival time, dose: 1024.0 mg/kg/injection, schedule: Q04DX003 (oral), vehicle: saline
  T/C: 119 % of control
endpoint: mean survival time, dose: 1024.0 mg/kg/injection, schedule: Q04DX003 (sc), vehicle: saline
  T/C: 89 % of control
endpoint: mean survival time, dose: 1024.0 mg/kg/injection, schedule: Q08DX002 (ip), vehicle: saline
  T/C: 118 % of control
endpoint: median survival time, dose: 0.78 mg/kg/injection, schedule: Q01DX009 (ip), vehicle: water
  T/C: 100 % of control
endpoint: median survival time, dose: 0.78 mg/kg/injection, schedule: Q04DX003 (ip), vehicle: water
  T/C: 100 % of control
endpoint: median survival time, dose: 1.57 mg/kg/injection, schedule: Q01DX009 (ip), vehicle: water
  T/C: 95 % of control and 100 % of control
endpoint: median survival time, dose: 1.57 mg/kg/injection, schedule: Q04DX003 (ip), vehicle: water
  T/C: 95 % of control
endpoint: median survival time, dose: 3.13 mg/kg/injection, schedule: Q01DX009 (ip), vehicle: water
  T/C: 100 % of control
endpoint: median survival time, dose: 3.13 mg/kg/injection, schedule: Q04DX003 (ip), vehicle: water
  T/C: 95 % of control and 100 % of control
endpoint: median survival time, dose: 6.25 mg/kg/injection, schedule: Q01DX009 (ip), vehicle: water
  T/C: 110 % of control
endpoint: median survival time, dose: 6.25 mg/kg/injection, schedule: Q04DX003 (ip), vehicle: water
  T/C: 90 % of control and 95 % of control
endpoint: median survival time, dose: 12.5 mg/kg/injection, schedule: Q01DX009 (ip), vehicle: water
  T/C: 105 % of control
endpoint: median survival time, dose: 12.5 mg/kg/injection, schedule: Q04DX003 (ip), vehicle: water
  T/C: 90 % of control and 100 % of control
endpoint: median survival time, dose: 13.0 mg/kg/injection, schedule: Q01DX009 (ip), vehicle: alkali diluted with saline
  T/C: 120 % of control
endpoint: median survival time, dose: 16.2 mg/kg/injection, schedule: Q01DX009 (ip), vehicle: alkali diluted with saline
  T/C: 119 % of control
endpoint: median survival time, dose: 21.6 mg/kg/injection, schedule: Q01DX009 (ip), vehicle: alkali diluted with saline
  T/C: 122 % of control
endpoint: median survival time, dose: 25.0 mg/kg/injection, schedule: Q01DX009 (ip), vehicle: water
  T/C: 100 % of control
endpoint: median survival time, dose: 25.0 mg/kg/injection, schedule: Q04DX003 (ip), vehicle: water
  T/C: 90 % of control and 105 % of control
endpoint: median survival time, dose: 27.0 mg/kg/injection, schedule: Q01DX009 (ip), vehicle: alkali diluted with saline
  T/C: 124 % of control
endpoint: median survival time, dose: 31.3 mg/kg/injection, schedule: Q01DX009 (ip), vehicle: water
  T/C: 122 % of control
endpoint: median survival time, dose: 31.3 mg/kg/injection, schedule: Q04DX003 (ip), vehicle: water
  T/C: 116 % of control
endpoint: median survival time, dose: 35.0 mg/kg/injection, schedule: Q04DX003 (ip), vehicle: alkali diluted with saline
  T/C: 120 % of control
endpoint: median survival time, dose: 36.0 mg/kg/injection, schedule: Q01DX009 (ip), vehicle: alkali diluted with saline
  T/C: 120 % of control
endpoint: median survival time, dose: 58.3 mg/kg/injection, schedule: Q04DX003 (ip), vehicle: alkali diluted with saline
  T/C: 120 % of control
endpoint: median survival time, dose: 62.5 mg/kg/injection, schedule: Q01DX009 (ip), vehicle: water
  T/C: 122 % of control
endpoint: median survival time, dose: 62.5 mg/kg/injection, schedule: Q04DX003 (ip), vehicle: water
  T/C: 122 % of control
endpoint: median survival time, dose: 90.0 mg/kg/injection, schedule: Q01DX009 (ip), vehicle: alkali diluted with saline
  T/C: 158 % of control
endpoint: median survival time, dose: 125.0 mg/kg/injection, schedule: Q01DX009 (ip), vehicle: alkali diluted with saline
  T/C: 114 % of control
endpoint: median survival time, dose: 125.0 mg/kg/injection, schedule: Q01DX009 (ip), vehicle: water
  T/C: 88 % of control
endpoint: median survival time, dose: 125.0 mg/kg/injection, schedule: Q04DX003 (ip), vehicle: water
  T/C: 122 % of control
endpoint: median survival time, dose: 162.0 mg/kg/injection, schedule: Q04DX003 (ip), vehicle: alkali diluted with saline
  T/C: 151 % of control
endpoint: median survival time, dose: 250.0 mg/kg/injection, schedule: Q04DX003 (ip), vehicle: water
  T/C: 155 % of control and 177 % of control
endpoint: median survival time, dose: 270.0 mg/kg/injection, schedule: Q04DX003 (ip), vehicle: alkali diluted with saline
  T/C: 172 % of control
endpoint: median survival time, dose: 450.0 mg/kg/injection, schedule: Q04DX003 (ip), vehicle: alkali diluted with saline
  T/C: 189 % of control
endpoint: median survival time, dose: 500.0 mg/kg/injection, schedule: Q04DX003 (ip), vehicle: water
  T/C: 194 % of control

Source: PubChem BioAssay AID256 (DTP/NCI, 2004)
